Laboratory results from ChEMBL document CHEMBL4680293, “Tubulin inhibitory activity of a novel colchicine-binding compounds based on a dinaphthospiropyranran scaffold” (Bioorg Med Chem, 2021).
Activity calls are given as the source filed them. The rule behind the calls is not given here.

How the values were obtained:
[1] = Anti-cancer activity against human ovarian cancer cells assessed as cell growth inhibition measured after 48 hrs by SRB method; assay type: functional; conditions: Ovarian cancer cell line
UO-31 = assay: Anti-cancer activity against human UO-31 cells assessed as cell growth inhibition measured after 48 hrs by SRB method; assay type: functional, cell-based
NCI-H460 = assay: Anti-cancer activity against human NCI-H460 cells assessed as cell growth inhibition measured after 48 hrs by SRB method; assay type: functional, cell-based
[2] = Anti-cancer activity against human prostate cancer cells assessed as cell growth inhibition measured after 48 hrs by SRB method; assay type: functional; conditions: Prostate tumor cell line
U-251 = assay: Anti-cancer activity against human U251 cells assessed as cell growth inhibition measured after 48 hrs by SRB method; assay type: functional, cell-based
SK-OV-3 = assay: Anti-cancer activity against human SK-OV-3 cells assessed as cell growth inhibition measured after 48 hrs by SRB method; assay type: functional, cell-based
HCT-116 = assay: Anti-cancer activity against human HCT-116 cells assessed as cell growth inhibition measured after 48 hrs by SRB method; assay type: functional, cell-based
SK-MEL-28 = assay: Anti-cancer activity against human SK-MEL-28 cells assessed as cell growth inhibition measured after 48 hrs by SRB method; assay type: functional, cell-based
DU-145 = assay: Anti-cancer activity against human DU-145 cells assessed as cell growth inhibition measured after 48 hrs by SRB method; assay type: functional, cell-based
SNB-19 = assay: Anti-cancer activity against human SNB-19 cells assessed as cell growth inhibition measured after 48 hrs by SRB method; assay type: functional, cell-based
SN12C = assay: Anti-cancer activity against human SN12C cells assessed as cell growth inhibition measured after 48 hrs by SRB method; assay type: functional, cell-based
Hs-578T = assay: Anti-cancer activity against human HS-578T cells assessed as cell growth inhibition measured after 48 hrs by SRB method; assay type: functional, cell-based
SR = assay: Anti-cancer activity against human SR cells assessed as cell growth inhibition measured after 48 hrs by SRB method; assay type: functional, cell-based
KM12 = assay: Anti-cancer activity against human KM12 cells assessed as cell growth inhibition measured after 48 hrs by SRB method; assay type: functional, cell-based
MOLT-4 = assay: Anti-cancer activity against human MOLT-4 cells assessed as cell growth inhibition measured after 48 hrs by SRB method; assay type: functional, cell-based
NCI-H226 = assay: Anti-cancer activity against human NCI-H226 cells assessed as cell growth inhibition measured after 48 hrs by SRB method; assay type: functional, cell-based
K562 = assay: Anti-cancer activity against human K562 cells assessed as cell growth inhibition measured after 48 hrs by SRB method; assay type: functional, cell-based
HL-60(TB) = assay: Anti-cancer activity against human HL-60(TB) cells assessed as cell growth inhibition measured after 48 hrs by SRB method; assay type: functional, cell-based
T47D = assay: Anti-cancer activity against human T47D cells assessed as cell growth inhibition measured after 48 hrs by SRB method; assay type: functional, cell-based
NCI-H23 = assay: Anti-cancer activity against human NCI-H23 cells assessed as cell growth inhibition measured after 48 hrs by SRB method; assay type: functional, cell-based
SF-295 = assay: Anti-cancer activity against human SF-295 cells assessed as cell growth inhibition measured after 48 hrs by SRB method; assay type: functional, cell-based
PC-3 = assay: Anti-cancer activity against human PC-3 cells assessed as cell growth inhibition measured after 48 hrs by SRB method; assay type: functional, cell-based
OVCAR-3 = assay: Anti-cancer activity against human OVCAR-3 cells assessed as cell growth inhibition measured after 48 hrs by SRB method; assay type: functional, cell-based
NCI-H522 = assay: Anti-cancer activity against human NCI-H522 cells assessed as cell growth inhibition measured after 48 hrs by SRB method; assay type: functional, cell-based
OVCAR-8 = assay: Anti-cancer activity against human OVCAR-8 cells assessed as cell growth inhibition measured after 48 hrs by SRB method; assay type: functional, cell-based
BT-549 = assay: Anti-cancer activity against human BT-549 cells assessed as cell growth inhibition measured after 48 hrs by SRB method; assay type: functional, cell-based
OVCAR-4 = assay: Anti-cancer activity against human OVCAR-4 cells assessed as cell growth inhibition measured after 48 hrs by SRB method; assay type: functional, cell-based
[3] = time 48 hrs, read-out: LC50 (the source's name)

In the case of `C1=C2CNCC3=Cc4c(ccc5ccccc45)OC23Oc2ccc3ccccc3c21`, the GI50 [1] is reported as 3.63 µM, the IC50 (UO-31; UO-31, 48 h) is reported as 17.4 µM and the GI50 (UO-31; UO-31, time 48 hrs) is reported as 3.55 µM. The TGI (UO-31; UO-31, time 48 hrs) was 21.4 µM, the CC50 (UO-31; UO-31, time 48 hrs, read-out: LC50 (the source's name)) was 4.16 µM and the IC50 (NCI-H460; NCI-H460, 48 h) was 3.72 µM. For the same compound, the GI50 (NCI-H460; NCI-H460, time 48 hrs) was 3.24 µM, the TGI (NCI-H460; NCI-H460, time 48 hrs) was 13.2 µM and the CC50 (NCI-H460; NCI-H460, time 48 hrs, read-out: LC50 (the source's name)) was 4.14 µM. The GI50 [2] was 3.39 µM, the IC50 (U-251; U-251, 48 h) was 5.13 µM and the GI50 (U-251; U-251, time 48 hrs) was 3.24 µM. For the same compound, the LC50 (concentration killing 50% of cells) (U-251; U-251, time 48 hrs) was 4.21 µM, the TGI (U-251; U-251, time 48 hrs) was 14.8 µM and the IC50 (SK-OV-3; SK-OV-3, 48 h) was 8.13 µM. The GI50 (SK-OV-3; SK-OV-3, time 48 hrs) was 3.39 µM, the TGI (SK-OV-3; SK-OV-3, time 48 hrs) was 12.9 µM and the CC50 (SK-OV-3; SK-OV-3, time 48 hrs, read-out: LC50 (the source's name)) was 4.26 µM. It also gave an IC50 (HCT-116; HCT-116, 48 h) of 3.72 µM, a GI50 (HCT-116; HCT-116, time 48 hrs) of 3.02 µM and an LC50 (HCT-116; HCT-116, time 48 hrs) of 4 µM. For the same compound, the TGI (HCT-116; HCT-116, time 48 hrs) was 13.2 µM, the TGI (SK-MEL-28) was “inactive” and the IC50 (SK-MEL-28; SK-MEL-28, 48 h) was 10 µM. The GI50 (SK-MEL-28; SK-MEL-28, time 48 hrs) was 7.41 µM, the IC50 (DU-145; DU-145, 48 h) was 4.68 µM and the GI50 (DU-145; DU-145, time 48 hrs) was 3.31 µM. It also gave a TGI (DU-145; DU-145, time 48 hrs) of 11.2 µM, a CC50 (DU-145; DU-145, time 48 hrs, read-out: LC50 (the source's name)) of 4.41 µM and an IC50 (SNB-19; SNB-19, 48 h) of 15.8 µM. It also gave a GI50 (SNB-19; SNB-19, time 48 hrs) of 6.92 µM, an LC50 (SNB-19; SNB-19, time 48 hrs) of 4 µM and a TGI (SNB-19; SNB-19, time 48 hrs) of 29.5 µM. For the same compound, the IC50 (SN12C; 48 h) was 7.59 µM, the GI50 (SN12C; time 48 hrs) was 4.27 µM and the TGI (SN12C; time 48 hrs) was 20 µM. The CC50 (SN12C; [3]) was 4.08 µM, the IC50 (Hs-578T; 48 h) was 100 µM and the GI50 (Hs-578T; time 48 hrs) was 2.24 µM. It also gave a TGI (Hs-578T; time 48 hrs) of 10.5 µM, a CC50 (Hs-578T; [3]) of 4 µM and an IC50 (SR; 48 h) of 3.8 µM. The GI50 (SR; time 48 hrs) was 2.19 µM, the LC50 (SR; time 48 hrs) was 4 µM and the TGI (SR; time 48 hrs) was 5.37 µM. The IC50 (KM12; KM12, 48 h) was 5.75 µM, the GI50 (KM12; KM12, time 48 hrs) was 3.8 µM and the LC50 (KM12; KM12, time 48 hrs) was 4.25 µM. The TGI (KM12; KM12, time 48 hrs) was 16.2 µM, the IC50 (MOLT-4; MOLT-4, 48 h) was 5.13 µM and the GI50 (MOLT-4; MOLT-4, time 48 hrs) was 2.88 µM. It also gave an LC50 (MOLT-4; MOLT-4, time 48 hrs) of 4 µM, a TGI (MOLT-4; MOLT-4, time 48 hrs) of 10.5 µM and an IC50 (NCI-H226; NCI-H226, 48 h) of 25.1 µM. It also gave a GI50 (NCI-H226; NCI-H226, time 48 hrs) of 10.5 µM, a TGI (NCI-H226; NCI-H226, time 48 hrs) of 27.5 µM and an IC50 (K562; K562, 48 h) of 3.55 µM. The GI50 (K562; K562, time 48 hrs) was 2.95 µM, the TGI (K562; K562, time 48 hrs) was 21.4 µM and the CC50 (K562; K562, time 48 hrs, read-out: LC50 (the source's name)) was 4 µM. It also gave an IC50 (HL-60(TB); HL-60, 48 h) of 5.32 µM, a GI50 (HL-60(TB); HL-60, time 48 hrs) of 5.57 µM and a TGI (HL-60(TB); HL-60, time 48 hrs) of 5.11 µM. For the same compound, the CC50 (HL-60(TB); HL-60, time 48 hrs, read-out: LC50 (the source's name)) was 4.07 µM, the IC50 (T47D; 48 h) was 24.5 µM and the GI50 (T47D; time 48 hrs) was 8.32 µM. For the same compound, the TGI (T47D; time 48 hrs) was 23.4 µM, the CC50 (T47D; [3]) was 4.22 µM and the IC50 (NCI-H23; NCI-H23, 48 h) was 20.9 µM. For the same compound, the GI50 (NCI-H23; NCI-H23, time 48 hrs) was 6.92 µM, the TGI (NCI-H23; NCI-H23, time 48 hrs) was 31.6 µM and the IC50 (SF-295; SF-295, 48 h) was 5.25 µM. For the same compound, the GI50 (SF-295; SF-295, time 48 hrs) was 3.09 µM, the TGI (SF-295; SF-295, time 48 hrs) was 15.5 µM and the CC50 (SF-295; SF-295, time 48 hrs, read-out: LC50 (the source's name)) was 4 µM. For the same compound, the IC50 (PC-3; PC-3, 48 h) was 10 µM, the GI50 (PC-3; PC-3, time 48 hrs) was 3.47 µM and the LC50 (PC-3; PC-3, time 48 hrs) was 4.16 µM. It also gave a TGI (PC-3; PC-3, time 48 hrs) of 18.2 µM, an IC50 (OVCAR-3; OVCAR-3, 48 h) of 4.07 µM and a GI50 (OVCAR-3; OVCAR-3, time 48 hrs) of 2.34 µM. The LC50 (OVCAR-3; OVCAR-3, time 48 hrs) was 4.71 µM, the TGI (OVCAR-3; OVCAR-3, time 48 hrs) was 5.5 µM and the IC50 (NCI-H522; NCI-H522, 48 h) was 9.55 µM. For the same compound, the GI50 (NCI-H522; NCI-H522, time 48 hrs) was 3.02 µM, the TGI (NCI-H522; NCI-H522, time 48 hrs) was 13.2 µM and the CC50 (NCI-H522; NCI-H522, time 48 hrs, read-out: LC50 (the source's name)) was 4.15 µM. It also gave an IC50 (OVCAR-8; OVCAR-8, 48 h) of 4.79 µM, a GI50 (OVCAR-8; OVCAR-8, time 48 hrs) of 3.02 µM and a TGI (OVCAR-8; OVCAR-8, time 48 hrs) of 14.8 µM. For the same compound, the CC50 (OVCAR-8; OVCAR-8, time 48 hrs, read-out: LC50 (the source's name)) was 4 µM, the IC50 (BT-549; BT-549, 48 h) was 40.7 µM and the GI50 (BT-549; BT-549, time 48 hrs) was 11.2 µM. It also gave a TGI (BT-549; BT-549, time 48 hrs) of 40.7 µM, a CC50 (BT-549; BT-549, time 48 hrs, read-out: LC50 (the source's name)) of 4 µM and an IC50 (OVCAR-4; OVCAR-4, 48 h) of 11.7 µM. The GI50 (OVCAR-4; OVCAR-4, time 48 hrs) was 4.68 µM, the LC50 (OVCAR-4; OVCAR-4, time 48 hrs) was 4.21 µM and the TGI (OVCAR-4; OVCAR-4, time 48 hrs) was 20 µM.
